# In US20210244704A1, “Cabazitaxel in mCRPC Patients Previously Treated with Docetaxel and Who Failed a Prior androgen signaling targeted inhibitor Agent” (SANOFI MATURE IP, priority 2019, published 2021):
# How the values were obtained:
# [1] = tested on: mCRPC patients; details: at 3 months; cited from earlier work
# [2] = tested on: mCRPC patients, safety population; experiment: Same clinical study: safety (adverse events, laboratory abnormalities, dose reductions); format: in vivo, human; details: human, in vivo
# Method: For patients in Arm A, cabazitaxel 25 mg/m^2 was administered intravenously over 1 hour every 3 weeks along with oral prednisone 10 mg given daily. Primary prophylactic granulocyte-colony stimulating factor (G-CSF) was required at each cycle for all patients in the cabazitaxel arm
# For patients in Arm B, abiraterone acetate was administered orally at 1000 mg once daily along with oral prednisone 5 mg given twice daily or enzalutamide was administered orally at 160 mg once daily continuously. Abiraterone acetate was administered to patients who had received enzalutamide prior to study entry. Enzalutamide was administered to patients who received prior abiraterone acetate.
# Cabazitaxel 25 mg/m^2, was administered intravenously over 1 hour every 3 weeks with oral prednisone 10 mg daily. Premedication included an antihistamine, glucocorticoid (dexamethasone 8 mg or equivalent), and histamine 2 receptor antagonist. Antiemetic prophylaxis was administered at physician's discretion. Primary prophylactic granulocyte-colony stimulating factor was required during each cycle of cabazitaxel. Patients received either abiraterone acetate (1000 mg orally once daily and oral prednisone 5 mg twice daily) or enzalutamide (160 mg orally once daily) continuously. A treatment cycle was 3 weeks in both arms. Abiraterone acetate was given to patients who previously received enzalutamide before study entry. Enzalutamide was given to patients who previously received abiraterone acetate.
# Up to a maximum of 2 dose reductions was allowed per patient when necessary due to toxicity and according to the table below:
# Efficacy analysis used all randomized patients. Stratified log-rank tests were used to analyze time-to-event data. The primary analysis compared radiographic progression-free survival between the two treatment groups using a stratified log-rank test. Survival curves were generated using Kaplan-Meier estimates. Hazard ratios and associated 95% confidence intervals [CI] were estimated using a stratified Cox proportional hazards model. Stratified Cochran-Mantel-Haenszel chi-square tests were used to analyze categorical data. Descriptive statistics were used to summarize patient characteristics. The safety population (randomized patients who received at least one dose of study treatment) was used for all safety analyses.
# [3] = tested on: mCRPC patients; details: 3 months; cited from earlier work
# [4] = tested on: patients with mCRPC who progressed during or after docetaxel; details: every 3 weeks with prednisone 10 mg daily; cabazitaxel 25 mg/m^2, mitoxantrone 12 mg/m^2; cited from earlier work
smiles,measurement,setting,value
"CNC(=O)c1ccc(N2C(=S)N(c3ccc(C#N)c(C(F)(F)F)c3)C(=O)C2(C)C)cc1F [enzalutamide, 4-{3-[4-cyano-3-(trifluoromethyl)phenyl]-5,5-dimethyl-4-oxo-2-sulfanylideneimidazolidin-1-yl}-2-fluoro-N-methylbenzamide]",Patients with imaging-based progression,[1],about 25%
"CC(=O)O[C@H]1CC[C@@]2(C)C(=CC[C@@H]3[C@@H]2CC[C@]2(C)C(c4cccnc4)=CC[C@@H]32)C1 [abiraterone acetate, (3β)-17-(3-pyridinyl) androsta-5,16-dien-3-yl acetate]",At least one dose reduction required,[2],17 patients
same,"Patients with primary resistance, imaging-based progression at the first visit",[3],about 30%
O=C1c2c(O)ccc(O)c2C(=O)c2c(NCCNCCO)ccc(NCCNCCO)c21 [mitoxantrone],"Median overall survival, TROPIC trial",[4],12.7 months
